Assay results as given in patent US11952337B2, “Bioenergetically active esters for health and disease” (University of Kansas, priority 2018, dated 2024).
Entries after “also recorded” stand apart in the source; their conditions may differ.

Legend:
[1] = cited from earlier work
[2] = in solution, especially in the presence of amino acids; cited from earlier work
SH-SY5Y cells [3] = test: Respiration / oxygen consumption rate (OCR), Seahorse Extracellular Flux analyzer; format: cell-based, human; settings: for Effect on respiration (OCR), in words: SH-SY5Y cultured neuronal cells; for Increase of cellular respiration and/or glycolysis, near maximum possible levels: preliminary testing, FIGS. 2 and 3; for ATP-linked Respiration / Change in OCR post injection (1) / Maximum OCR / Post-Oligomycin (Leak Rate) OCR: average of three experiments
Method: (§1) In these experiments, oligomycin, FCCP, rotenone/antimycin, and 2-deoxyglucose were used to determine the proportion of oxygen that was consumed as part of the mitochondrial “leak” and “ATP production”; maximum and spare flux rates were also determined using standard established flux analysis protocols. […] FIG. 1D schematically summarizes this pathway.
(§2) For these measurements, oligomycin, FCCP, and rotenone/antimycin were used to determine mitochondrial respiration leak rates, the maximum oxygen consumption rate, and the non-mitochondrial oxygen consumption rate. […] The dose-response was logarithmic over a test range of 0.1 to 2 mM (FIG. 4). FIG. 3A illustrates respiration peaking at ˜40% enhancement, which is the maximum possible when mitochondria are chemically uncoupled.

SH-SY5Y cells [4] = test: Glycolysis flux (ECAR), Seahorse Extracellular Flux analyzer; format: cell-based, human
Method: as §1, §2

[5] = mice, cited from earlier work

## O=C(O)CC(=O)C(=O)O [OAA, 2-oxosuccinic acid]
[1]; AD clinical study, doses up to 1 gram BID
  Safety profile: excellent safety profile
[1]; PK study, 100 mg BID, AD participants
  Plasma level increase: did not reveal a reliable plasma level increase
[2]
  Decarboxylation rate into pyruvate: ~1 %/min
SH-SY5Y cells [3]; OAA treatment, SH-SY5Y, FIG. 1C
  Increase in cellular respiration: about 50%
SH-SY5Y cells [3]
  Effect on respiration (OCR), in words: increase aspects of mitochondrial respiration flux
SH-SY5Y cells [4]; 2 mM OAA, SH-SY5Y, FIG. 1B
  Increase in glycolysis flux capacity: about 50%
SH-SY5Y cells [4]; 2 mM, SH-SY5Y, FIG. 1B
  Effect on glycolysis flux: enhances rather than impedes glycolysis flux
[5]; 1 g/kg/day and 2 g/kg/day
  Brain changes: induced unequivocal brain changes
[5]; intraperitoneal (IP) injection
  Activity of NFκB transcription factor (neuroinflammation): lessened activity
  Hippocampal neurogenesis: increased hippocampal neurogenesis
  Insulin pathway signaling in brain: enhanced insulin pathway signaling
  Mitochondrial biogenesis parameters in brain: promoted mitochondrial biogenesis parameters

## CC(CC(=O)O)OC(=O)CC(=O)C(=O)OC(C)CC(=O)O (centres unmarked) [OAA(BHB)2, 3,3′-((2-oxosuccinyl)bis(oxy))dibutyric acid]
SH-SY5Y cells [3]; 1-mM dose, SH-SY5Y, FIG. 2, averages of three experiments
  Increase in cell respiration: ~30%
SH-SY5Y cells [3]
  Effect on respiration (OCR), in words: increases respiration
  Increase of cellular respiration and/or glycolysis, near maximum possible levels: ~40%

## CC(O)COC(=O)CC(=O)C(=O)OCC(C)O (centres unmarked) [OAA(PG)2, Bis(2-hydroxypropyl) 2-oxosuccinate]
SH-SY5Y cells [3]; 0.1 mM, SH-SY5Y
  ATP-linked Respiration: 50.1%
  Change in OCR post injection (1): 101.7%
  Maximum OCR: 98.92%
  Post-Oligomycin (Leak Rate) OCR: 51.58%
SH-SY5Y cells [3]; 0.25 mM, SH-SY5Y
  ATP-linked Respiration: 50.66%
  Change in OCR post injection (1): 101.1%
  Maximum OCR: 93.08%
  Post-Oligomycin (Leak Rate) OCR: 50.46%
SH-SY5Y cells [3]; 0.5 mM, SH-SY5Y
  ATP-linked Respiration: 44.78%
  Change in OCR post injection (1): 103.9%
  Maximum OCR: 93.62%
  Post-Oligomycin (Leak Rate) OCR: 59.15%
SH-SY5Y cells [3]; 1 mM, SH-SY5Y
  ATP-linked Respiration: 52.7%
  Change in OCR post injection (1): 106.5%
  Maximum OCR: 81.46%
  Post-Oligomycin (Leak Rate) OCR: 53.8%
SH-SY5Y cells [3]; 2 mM, SH-SY5Y
  ATP-linked Respiration: 68.89%
  Change in OCR post injection (1): 119.8%
  Maximum OCR: 91.73%
  Post-Oligomycin (Leak Rate) OCR: 50.86%
SH-SY5Y cells [3]
  Effect on respiration (OCR), in words: enhance respiration
  Increase of cellular respiration and/or glycolysis, near maximum possible levels: ~40%
SH-SY5Y cells [3]; SH-SY5Y, FIG. 3A, maximum possible when mitochondria are chemically uncoupled
  Peak enhancement of respiration: ~40%
SH-SY5Y cells [3]; test range of 0.1 to 2 mM, FIG. 4
  Shape of dose-response of respiration: logarithmic
SH-SY5Y cells [4]; 1, 2 and 5 mM OAA(PG)2, SH-SY5Y, FIG. 3B
  Effect on glycolysis (ECAR): without concomitantly creating a statistical reduction in the glycolysis flux; also recorded: insignificant effect on glycolysis

## CC(O)C(=O)O (centres unmarked) [lactate, reference compound]
SH-SY5Y cells [3]; experiments not further specified
  Effect on respiration, in words: effectively promote respiration
